We go through 2 compounds from publication PMC12668304, “A Triple Threat Against Ovarian Cancer: Os(II)‐Pt(IV)‐Ceritinib Conjugates for Photodynamic Therapy, Chemotherapy, and Immunogenic Cell Death Induction” (Angewandte Chemie (International Ed. in English), 2025).

One test has as its system A2780 MCTSs. Kind of test: Growth kinetics (diameter) of spheroids. As to conditions: 0.5 µM, irradiated 1 h at 740 nm, after 72 h. The format is cell-based, human. As to the method:
A2780 spheroids (ca. 500 µm in diameter) were treated with increasing concentrations of the compounds and after 24 h of incubation, the medium was replaced with fresh medium, and the cells were either kept in the dark or irradiated for 1 h at 740 nm. Images of the spheroids were taken every 24 h for 3 days.
Figure 4 Changes in the growth kinetics of A2780 MCTSs treated with complex Os‐Pt‐Cer, Os, ceritinib, oxaliplatin, and cisplatin at 0.5 and 5 µM for irradiated and dark groups, respectively, and non‐treated as control. Images were collected on 0, 4, 24, and 72 h after the creation of the groups. Scale bar: 1000 µm.
4 h of incubation, the conversion of resazurin into resorufin was determined upon excitation at 540 nm and measurement of its emission at 590 nm using a Cytation 5 Imaging Reader from BioTek. The obtained data was analysed with the GraphPad Prism software
MCTS were cultured using ultra-low attachment 96 wells plates from Corning (Fisher Scientific 15329740). A2780 cells were seeded at a density of 1,500 cells per well in 100 μL of RPMI. Within 2-3 days, MCTSs have approximately 500 μm of diameter. The formation as well as integrity and diameter of the MCTSs were monitored by microscopy.
(Photo-)cytotoxicity on 3D multicellular tumor spheroids (MCTS) […]
Intracellular distribution by confocal fluorescence microscopy […]
Images were analysed with LAS X Flim FCS software. […]

Test [1] has as its system calreticulin (CRT) exposure on MCA205 cells. Put plainly: Externalisation of calreticulin (confocal microscopy, anti-CRT antibody). The format is cell-based, mouse. As to conditions: positive control, light condition not stated. The protocol:
Surface exposure of CRT was measured via confocal fluorescence microscopy after staining with an anti‐CRT antibody (ab2907). […] The surface exposure in the dark might be due to the oxaliplatin, a bona fide ICD inducer. Specifically, CRT expression increased by 67% upon irradiation and 63% in the dark, compared with non‐treated cells.
Figure 8 Translocation and changes in calreticulin (CRT) exposure on MCA205 cells determined by confocal fluorescence microscopy after 4 h treatment under dark (−L) and light (+L) (740 nm, 1 h) conditions, and an additional 16 h of incubation. DAPI: Nuclear fluorescence dye. Scale bar: 20 µm.
The localisation of the different parts of the studied complexes was determined by measuring the Os and Pt content inside A2780 cells via ICP-MS. […] After this time, the cells were trypsinized and counted. […] In parallel, the content of Os and Pt was determined in a total cell extraction (2·10 6 cells). […] The Os and Pt content was determined using an ICP -MS apparatus and comparing the results with the Os and Pt calibration standards.
A2780 cells were seeded in a 12-well plate to obtain a 90 –100% confluency. […] The cells were monitored by imaging over the following time intervals: 0, 6, 24, 32, and 48 h. […]
Extracellular ATP released from treated MCA205 and A2780 cells was detected by the luminescent ATP assay kit (ab113849). […]

`O=C1[O][Pt]2([NH][C@@H]3CCCC[C@H]3[NH]2)[O]C1=O` [Oxaliplatin]: the “change of MCTS diameter” value in the test on A2780 MCTSs is reported as “increased with time”. Further, the CRT increase in test [1] is given as 21%. For `Cc1cc(Nc2ncc(Cl)c(Nc3ccccc3S(=O)(=O)C(C)C)n2)c(OC(C)C)cc1C1CCNCC1` [Ceritinib], the “change of MCTS diameter” value in the test with A2780 MCTSs is “increased with time”.
